Laboratory results reported in patent publication US11447505B1, “Pyrrolo[2,3-b]pyridine compounds and their use in the treatment of cancer” (priority 2017, dated 2022).

Tests used:
MRCKβ = MRCKβ (Homo sapiens (Human), UniProt Q9Y5S2); test: MRCKβ kinase assay (IMAP fluorescence polarization); assay type: biochemical; details: 1 μM ATP; read-out: MRCK-B Average Ki
Source text: MRCKα, MRCKβ, ROCK1 and ROCK2 Kinase Assays

ROCK1 = ROCK1 (Homo sapiens (Human), UniProt Q13464); details: read-out: ROCK1 Average Ki; 1 μM ATP
Chain of ROCK1 (Q13464 2-1354 limits assumed): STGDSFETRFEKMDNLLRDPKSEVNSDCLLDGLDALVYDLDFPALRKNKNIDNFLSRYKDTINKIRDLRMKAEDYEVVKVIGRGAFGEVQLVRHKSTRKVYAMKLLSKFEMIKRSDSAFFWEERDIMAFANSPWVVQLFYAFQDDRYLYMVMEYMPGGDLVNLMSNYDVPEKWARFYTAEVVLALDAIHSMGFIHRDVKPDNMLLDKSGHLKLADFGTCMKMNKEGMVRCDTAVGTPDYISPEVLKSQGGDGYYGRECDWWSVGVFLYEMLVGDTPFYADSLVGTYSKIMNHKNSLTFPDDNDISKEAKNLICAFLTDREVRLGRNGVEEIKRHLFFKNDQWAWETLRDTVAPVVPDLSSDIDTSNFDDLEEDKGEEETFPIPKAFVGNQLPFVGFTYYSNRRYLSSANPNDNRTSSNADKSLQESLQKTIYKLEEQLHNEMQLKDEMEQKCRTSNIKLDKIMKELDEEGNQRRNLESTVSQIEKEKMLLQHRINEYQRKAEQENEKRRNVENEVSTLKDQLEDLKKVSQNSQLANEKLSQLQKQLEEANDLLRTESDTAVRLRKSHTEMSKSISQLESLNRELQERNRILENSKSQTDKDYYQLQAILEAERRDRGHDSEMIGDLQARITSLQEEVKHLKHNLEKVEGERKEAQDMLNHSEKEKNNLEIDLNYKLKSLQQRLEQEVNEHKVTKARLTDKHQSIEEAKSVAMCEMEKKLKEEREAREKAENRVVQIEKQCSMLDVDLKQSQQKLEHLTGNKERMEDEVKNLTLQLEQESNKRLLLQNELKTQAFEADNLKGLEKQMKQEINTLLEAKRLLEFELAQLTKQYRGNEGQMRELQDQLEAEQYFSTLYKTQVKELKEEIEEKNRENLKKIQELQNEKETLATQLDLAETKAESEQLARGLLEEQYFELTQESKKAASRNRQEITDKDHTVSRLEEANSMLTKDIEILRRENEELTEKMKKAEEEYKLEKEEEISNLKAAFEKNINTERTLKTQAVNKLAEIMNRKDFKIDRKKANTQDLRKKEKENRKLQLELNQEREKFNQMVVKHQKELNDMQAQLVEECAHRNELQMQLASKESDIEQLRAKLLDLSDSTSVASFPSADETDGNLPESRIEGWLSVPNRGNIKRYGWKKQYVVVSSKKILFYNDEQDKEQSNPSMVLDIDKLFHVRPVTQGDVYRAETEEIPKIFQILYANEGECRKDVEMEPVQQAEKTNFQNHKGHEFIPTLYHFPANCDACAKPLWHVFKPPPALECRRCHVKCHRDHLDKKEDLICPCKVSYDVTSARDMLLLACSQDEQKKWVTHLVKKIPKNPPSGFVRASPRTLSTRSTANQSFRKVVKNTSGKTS

Molecule	Ki (MRCKβ)	Ki (ROCK1)
Cc1cnc(-c2c[nH]c3nccc(N4CCC5(CCN5)C4)c23)s1 (centres unmarked) [Example E152, 2-[4-(1,7-diazaspiro[3.4]octan-7-yl)-1H-pyrrolo[2,3-b]pyridin-3-yl]-5-methyl-thiazole]	4.65 nM	100000 nM
Cc1ncc(-c2c[nH]c3nccc(N4CCCC5(CCCCN5)C4)c23)cn1 (centres unmarked) [Example E166, 8-[3-(2-methylpyrimidin-5-yl)-1H-pyrrolo[2,3-b]pyridin-4-yl]-1,8-diazaspiro[5.5]undecane]	0.786 nM	100000 nM
c1ncc(-c2c[nH]c3nccc(N4CC[C@]5(CCCCN5)C4)c23)cn1 [Example E125, (5R)-2-(3-pyrimidin-5-yl-1H-pyrrolo[2,3-b]pyridin-4-yl)-2,6-diazaspiro[4.5]decane]	31.3 nM	424 nM
c1cc(-c2c[nH]c3nccc(O[C@@H]4CCCNC4)c23)ncn1 [Example E213, 3-pyrimidin-4-yl-4-[[(3R)-3-piperidyl]oxy]-1H-pyrrolo[2,3-b]pyridine]	0.144 nM	3.84 nM
c1ncc(-c2c[nH]c3nccc(N4CC[C@@]5(CCCN5)C4)c23)cn1 [Example E124, 4-[(5S)-1,7-diazaspiro[4.4]nonan-7-yl]-3-pyrimidin-5-yl-1H-pyrrolo[2,3-b]pyridine]	0.947 nM	76.9 nM
c1csc(-c2c[nH]c3nccc(N4CCC5(CCCN5)C4)c23)n1 (centres unmarked) [Example E154, 2-[4-(1,7-diazaspiro[4.4]nonan-7-yl)-1H-pyrrolo[2,3-b]pyridin-3-yl]thiazole]	0.37 nM	239 nM
c1ccc(-c2c[nH]c3nccc(N4CCC5(CCCCN5)C4)c23)nc1 (centres unmarked) [Example E141, 2-[3-(2-pyridyl)-1H-pyrrolo[2,3-b]pyridin-4-yl]-2,6-diazaspiro[4.5]decane]	0.549 nM	109 nM
c1cc(-c2c[nH]c3nccc(N4CCC5(CCNC5)C4)c23)cnn1 (centres unmarked) [Example E164, 4-(2,7-diazaspiro[4.4]nonan-2-yl)-3-pyridazin-4-yl-1H-pyrrolo[2,3-b]pyridine]	1.12 nM	0.448 nM
Cc1nccc(-c2c[nH]c3nccc(N4CCCC5(CCCCN5)C4)c23)n1 (centres unmarked) [Example E160, 8-[3-(2-methylpyrimidin-4-yl)-1H-pyrrolo[2,3-b]pyridin-4-yl]-1,8-diazaspiro[5.5]undecane]	2.76 nM	100000 nM
7-(3-pyridazin-4-yl-1H-pyrrolo[2,3-b]pyridin-4-yl)-2,7-diazaspiro[4.5]decane [Example E163]	2.4 nM	16.7 nM
Cc1csc(-c2c[nH]c3nccc(N4CCCC5(CCCCN5)C4)c23)n1 (centres unmarked) [Example E158, 2-[4-(1,8-diazaspiro[5.5]undecan-8-yl)-1H-pyrrolo[2,3-b]pyridin-3-yl]-4-methyl-thiazole]	0.36 nM	100000 nM
c1csc(-c2c[nH]c3nccc(N4CCC[C@]5(CCCCN5)C4)c23)n1 [Example E151, 2-[4-[(6R)-1,8-diazaspiro[5.5]undecan-8-yl]-1H-pyrrolo[2,3-b]pyridin-3-yl]thiazole]	3.21 nM	114 nM
c1ccc(-c2c[nH]c3nccc(N4CCCC5(CCCCN5)C4)c23)nc1 (centres unmarked) [Example E138, 8-[3-(2-pyridyl)-1H-pyrrolo[2,3-b]pyridin-4-yl]-1,8-diazaspiro[5.5]undecane]	0.0726 nM	319 nM
c1ncc(-c2c[nH]c3nccc(N4CC[C@]5(CCCN5)C4)c23)cn1 [Example E123, 4-[(5R)-1,7-diazaspiro[4.4]nonan-7-yl]-3-pyrimidin-5-yl-1H-pyrrolo[2,3-b]pyridine]	9.88 nM	100000 nM
CN(C)C(=O)C1(N)CCN(c2ccnc3[nH]cc(-c4cncnc4)c23)CC1 [Example E198, 4-amino-N,N-dimethyl-1-(3-pyrimidin-5-yl-1H-pyrrolo[2,3-b]pyridin-4-yl)piperidine-4-carboxamide]	42.9 nM	–
N#Cc1c[nH]c2nccc(N3CCCCC3Cc3ccccc3)c12 (centres unmarked) [Example E106, 4-(2-benzyl-1-piperidyl)-1H-pyrrolo[2,3-b]pyridine-3-carbonitrile]	805 nM	–
c1ncc(-c2c[nH]c3nccc(N4CCCNCC4)c23)cn1 [Example E44, 4-(1,4-diazepan-1-yl)-3-pyrimidin-5-yl-1H-pyrrolo[2,3-b]pyridine]	4.5 nM	461 nM
N#Cc1c[nH]c2nccc(N3CCCC4(CCCCN4)C3)c12 (centres unmarked) [Example E165, 4-(1,8-diazaspiro[5.5]undecan-8-yl)-1H-pyrrolo[2,3-b]pyridine-3-carbonitrile]	0.249 nM	174 nM
c1cc(-c2c[nH]c3nccc(N4CCC5(CCCN5)C4)c23)cnn1 (centres unmarked) [Example E161, 4-(1,7-diazaspiro[4.4]nonan-7-yl)-3-pyridazin-4-yl-1H-pyrrolo[2,3-b]pyridine]	0.933 nM	34.1 nM
N#Cc1c[nH]c2nccc(N3CCC[C@H]3C(=O)N3CCCCC3)c12 [Example E203, 4-[(2S)-2-(piperidine-1-carbonyl)pyrrolidin-1-yl]-1H-pyrrolo[2,3-b]pyridine-3-carbonitrile]	804 nM	–

Molecule	Ki (MRCKβ)	Ki (ROCK1)
c1ccc(-c2c[nH]c3nccc(N4CCC[C@]5(CCCCN5)C4)c23)nc1 [Example E140, (6R)-8-[3-(2-pyridyl)-1H-pyrrolo[2,3-b]pyridin-4-yl]-1,8-diazaspiro[5.5]undecane]	7.33 nM	97.7 nM
c1cc(-c2c[nH]c3nccc(N4CCCNCC4)c23)cnn1 [Example E43, 4-(1,4-diazepan-1-yl)-3-pyridazin-4-yl-1H-pyrrolo[2,3-b]pyridine]	2.61 nM	59.5 nM
Cc1cnc(-c2c[nH]c3nccc(N4CCCC5(CCCCN5)C4)c23)s1 (centres unmarked) [Example E147, 2-[4-(1,8-diazaspiro[5.5]undecan-8-yl)-1H-pyrrolo[2,3-b]pyridin-3-yl]-5-methyl-thiazole]	0.0924 nM	100000 nM
c1cc(-c2c[nH]c3nccc(N4CCC[C@]5(CCCCN5)C4)c23)cnn1 [Example E173, (6R)-8-(3-pyridazin-4-yl-1H-pyrrolo[2,3-b]pyridin-4-yl)-1,8-diazaspiro[5.5]undecane]	1.18 nM	294 nM
N#Cc1c[nH]c2nccc(N3CCC4(CCCN4)C3)c12 (centres unmarked) [Example E185, 4-(1,7-diazaspiro[4.4]nonan-7-yl)-1H-pyrrolo[2,3-b]pyridine-3-carbonitrile]	1.92 nM	13.6 nM
Cc1cnc(-c2c[nH]c3nccc(N4CC[C@]5(CCCCN5)C4)c23)s1 [Example E130, 2-[4-[(5R)-2,6-diazaspiro[4.5]decan-2-yl]-1H-pyrrolo[2,3-b]pyridin-3-yl]-5-methyl-thiazole]	7.23 nM	100000 nM
N-[(3S)-1-(3-pyridazin-4-yl-1H-pyrrolo[2,3-b]pyridin-4-yl)-3-piperidyl]acetamide [Example E205]	4.43 nM	113 nM
c1ccc(-c2c[nH]c3nccc(N4CCC5(CCCN5)C4)c23)nc1 (centres unmarked) [Example E137, 4-(1,7-diazaspiro[4.4]nonan-7-yl)-3-(2-pyridyl)-1H-pyrrolo[2,3-b]pyridine]	2.83 nM	100000 nM
c1cc(-c2c[nH]c3nccc(N4CC[C@]5(CCCCN5)C4)c23)ncn1 [Example E127, (5R)-2-(3-pyrimidin-4-yl-1H-pyrrolo[2,3-b]pyridin-4-yl)-2,6-diazaspiro[4.5]decane]	11.6 nM	175 nM
Cc1cnc(-c2c[nH]c3nccc(N4CCCC5(CCCN5)C4)c23)s1 (centres unmarked) [Example E143, 2-[4-(1,9-diazaspiro[4.5]decan-9-yl)-1H-pyrrolo[2,3-b]pyridin-3-yl]-5-methyl-thiazole]	0.882 nM	100000 nM
c1cc(-c2c[nH]c3nccc(N4CCC5(CCCCN5)C4)c23)cnn1 (centres unmarked) [Example E162, 2-(3-pyridazin-4-yl-1H-pyrrolo[2,3-b]pyridin-4-yl)-2,6-diazaspiro[4.5]decane]	0.219 nM	16.9 nM
Cc1cnc(-c2c[nH]c3nccc(N4CCCC5(CCN5)C4)c23)s1 (centres unmarked) [Example E153, 2-[4-(1,8-diazaspiro[3.5]nonan-8-yl)-1H-pyrrolo[2,3-b]pyridin-3-yl]-5-methyl-thiazole]	9.36 nM	100000 nM
Cc1cnc(-c2c[nH]c3nccc(N4CCC5(CCCCN5)C4)c23)s1 (centres unmarked) [Example E144, 2-[4-(2,6-diazaspiro[4.5]decan-2-yl)-1H-pyrrolo[2,3-b]pyridin-3-yl]-5-methyl-thiazole]	0.154 nM	386 nM
c1csc(-c2c[nH]c3nccc(N4CC[C@]5(CCCCN5)C4)c23)n1 [Example E132, 2-[4-[(5R)-2,6-diazaspiro[4.5]decan-2-yl]-1H-pyrrolo[2,3-b]pyridin-3-yl]thiazole]	4.11 nM	100000 nM
c1csc(-c2c[nH]c3nccc(N4CC[C@]5(CCCN5)C4)c23)n1 [Example E135, 2-[4-[(5R)-1,7-diazaspiro[4.4]nonan-7-yl]-1H-pyrrolo[2,3-b]pyridin-3-yl]thiazole]	10.3 nM	100000 nM
Cc1noc(C)c1-c1c[nH]c2nccc(N3CCCC4(CCCCN4)C3)c12 (centres unmarked) [Example E167, 4-[4-(1,8-diazaspiro[5.5]undecan-8-yl)-1H-pyrrolo[2,3-b]pyridin-3-yl]-3,5-dimethyl-isoxazole]	108 nM	100000 nM
c1csc(-c2c[nH]c3nccc(N4CCCC5(CCCCN5)C4)c23)n1 (centres unmarked) [Example E149, 2-[4-(1,8-diazaspiro[5.5]undecan-8-yl)-1H-pyrrolo[2,3-b]pyridin-3-yl]thiazole]	0.0633 nM	304 nM
NC1CN(c2ccnc3[nH]cc(-c4ccncn4)c23)CCC1F (centres unmarked) [Example E42, 4-fluoro-1-(3-pyrimidin-4-yl-1H-pyrrolo[2,3-b]pyridin-4-yl)piperidin-3-amine]	0.323 nM	79.6 nM
N#Cc1c[nH]c2nccc(N3CCC[C@H]3C(=O)N3CCOCC3)c12 [Example E202, 4-[(2S)-2-(morpholine-4-carbonyl)pyrrolidin-1-yl]-1H-pyrrolo[2,3-b]pyridine-3-carbonitrile]	992 nM	–
